# Test results: ChEMBL document CHEMBL1201862, “PubChem BioAssay data set” (2004)
# Activity calls are given as the source filed them. Where a SMILES comes first, the peptide text is derived from it. The star is where a group is joined. Boc = CC(C)(C)OC(=O)*; OtBu = CC(C)(C)O*
# Test system: Streptococcus sp. 'group A'
# Assay: growth inhibition of control SK(-) GAS strain, dose response, counter-screen for streptokinase expression inhibitor project, luminescence, kanamycin, BacTiterGlo, confirmation (AID 1900)
# Assay type: functional, organism-based
# Conditions: not given
row,Structure (SMILES),EC50
1,C/C(=N\NC(=S)Nc1cccc(C)c1)c1cc2ccccc2o1,3.44 µM (active)

# Target: T1, Streptokinase A (Streptococcus pyogenes serotype M1, UniProt P10520)
# T1 sequence (P10520 whole entry): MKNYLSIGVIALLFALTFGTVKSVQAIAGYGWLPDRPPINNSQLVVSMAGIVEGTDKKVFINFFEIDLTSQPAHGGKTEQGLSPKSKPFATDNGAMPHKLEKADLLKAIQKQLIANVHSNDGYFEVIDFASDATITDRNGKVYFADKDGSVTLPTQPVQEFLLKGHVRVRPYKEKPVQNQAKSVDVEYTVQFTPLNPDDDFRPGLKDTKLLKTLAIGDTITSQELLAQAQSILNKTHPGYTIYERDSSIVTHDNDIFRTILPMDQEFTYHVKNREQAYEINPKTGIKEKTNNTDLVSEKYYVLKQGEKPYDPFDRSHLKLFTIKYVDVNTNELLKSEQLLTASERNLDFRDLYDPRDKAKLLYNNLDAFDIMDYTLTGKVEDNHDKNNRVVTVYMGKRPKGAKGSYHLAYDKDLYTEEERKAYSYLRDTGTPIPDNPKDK
# Assay: S. pyogenes streptokinase expression inhibitors, potency, dose response, plasminogen activation absorbance, OD405 (AID 1914);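 also: secreted streptokinase activity via plasminogen activation per viability signal from cell pellet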
# Assay type: functional, Streptococcus pyogenes M1 GAS
# Conditions: not given
row,Structure (SMILES),EC50
1,C/C(=N\NC(=S)Nc1cccc(C)c1)c1cc2ccccc2o1,> 150 µM (not active)

# Test system: Streptococcus
# Assay: Group A Streptococcus viability loss, dose response, counter-screen for streptokinase expression inhibitor project, luminescence, BacTiterGlo (AID 1915);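 also: potency for reduction of bacterial viability or growth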
# Assay type: functional, organism-based
# Conditions: not given
row,Structure (SMILES),EC50
1,C/C(=N\NC(=S)Nc1cccc(C)c1)c1cc2ccccc2o1,> 150 µM (not active)

# Test system: not listed separately
# Assay: Luminescence Cell-Based Dose Retest to Confirm Inhibitors of Cancer Stem Cells. [Related pubchem assays (depositor defined):AID2717, AID2721]
# Assay type: functional
# Conditions: Homo sapiens
row,Structure (SMILES),AC50
1,Cc1cccc(NC2=C/C(=N/S(=O)(=O)c3cccs3)c3ccccc3C2=O)c1,0.835 µM (active)

# Target: T2, Heat shock factor protein 1 (Mus musculus, UniProt P38532)
# T2 sequence (P38532 whole entry): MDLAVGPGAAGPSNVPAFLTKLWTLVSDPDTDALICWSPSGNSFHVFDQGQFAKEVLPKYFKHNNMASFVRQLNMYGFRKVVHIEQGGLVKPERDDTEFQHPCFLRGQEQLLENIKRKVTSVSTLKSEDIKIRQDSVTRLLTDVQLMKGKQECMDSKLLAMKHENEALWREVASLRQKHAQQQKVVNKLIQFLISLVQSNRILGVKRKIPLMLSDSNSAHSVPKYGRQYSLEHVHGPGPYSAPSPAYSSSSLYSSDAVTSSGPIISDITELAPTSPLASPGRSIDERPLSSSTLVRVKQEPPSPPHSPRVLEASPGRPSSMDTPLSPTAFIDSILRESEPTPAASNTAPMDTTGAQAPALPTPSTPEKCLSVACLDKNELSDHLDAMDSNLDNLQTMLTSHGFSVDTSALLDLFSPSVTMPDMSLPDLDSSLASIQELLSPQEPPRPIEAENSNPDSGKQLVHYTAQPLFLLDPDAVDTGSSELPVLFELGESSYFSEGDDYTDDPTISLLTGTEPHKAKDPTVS
# Assay: HSF1 potentiators in luciferase reporter cells, confirmation, cell-based, NIH3T3, luminescence, dose retest (AID 435004);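 also: stress induced by proteasome inhibitor MG132 added 30 min after compound; luciferase reporter driven by HSF1 response element in NIH3T3 cells; actives raise luminescence as potentiators of the MG132 stress response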
# Assay type: functional
# Conditions: not given
row,Structure (SMILES),EC50
1,N#CC(CO)(Cc1ccc(OC(F)F)cc1)c1nc2ccccc2[nH]1 (configuration not stated),> 260 µM (inactive)
2,O=C(Cc1ccc([N+](=O)[O-])cc1)N1N=C(C2CC2)CC1(O)C(F)(F)F (configuration not stated),> 260 µM (inactive)
3,CCN(CC)C(=O)Oc1ccc(Br)cc1C(=O)Nc1ccc(F)cc1F,> 260 µM (inactive)
4,Cc1ccc(-c2cc(C(F)(F)F)c(C#N)c(SCC(=O)O)n2)cc1,> 260 µM (inconclusive)
5,Cn1c(SCc2ccccc2C#N)nc2ccccc2c1=O,> 260 µM (inactive)
6,Cc1ccc(OC(=O)c2ccc(C)c(C)c2)cn1,> 260 µM (inactive)
7,O=[N+]([O-])c1ccc(N2CCCCCC2)c([N+](=O)[O-])c1,> 260 µM (inactive)
8,Cc1nc(SCC(=O)c2ccccc2)c(C#N)c(-c2ccco2)c1C(=O)NCc1ccco1,99.7 µM (active)
9,COc1cc(-c2nnn(CC#N)n2)ccc1OCc1ccccc1,90.9 µM (active)
10,CC1SC(c2ccc(Cl)cc2)NC1=O (configuration not stated),> 260 µM (inactive)
11,CCc1ccc(NC(=O)CSC2=C(C#N)C(c3ccc4c(c3)OCO4)CC(=O)N2)cc1 (configuration not stated),> 260 µM (inactive)
12,CC1CC(=O)N(c2ccc(Br)cc2)C(=O)C1,> 260 µM (inactive)
13,O=C(CNS(=O)(=O)c1ccc(Br)s1)NCc1ccccc1,> 260 µM (inactive)
14,COC(=O)C(Cc1ccc(O)cc1)NC(=O)C(CC(=O)OC(C)(C)C)NC(=O)OC(C)(C)C (configuration not stated) (Boc-Asp(OtBu)-Tyr-OMe; configuration not given here),> 260 µM (inactive)

# Test system: INS1
# Assay: beta cell apoptosis inhibitors, cytokine rescue, dose response, luminescence, retest (AID 449756);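 also: cell death triggered by IL-1 beta plus TNF-alpha plus IFN-gamma mixture; protective hits raise ATP signal compared with cytokine alone wells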
# Assay type: functional, cell-based
# Conditions: Rattus norvegicus
row,Structure (SMILES),AC50
1,O=C(NC1CCCC1)c1cc(COc2ccc3ncccc3c2)on1,3.29 µM (active)
2,Cc1ccc(C(C)C)c(OCC(O)CN2CCc3ccccc3C2)c1 (configuration not stated),7.17 µM (active)
3,CC1CC(=O)N(c2ccc(Br)cc2)C(=O)C1,> 260 µM (inactive)
4,O=C(O)CCCC(=O)Nc1ccc(C(=O)NCc2cccnc2)cc1,2.39 µM (active)
5,Cc1cccc(NC2=C/C(=N/S(=O)(=O)c3cccs3)c3ccccc3C2=O)c1,0.803 µM (active)
6,Cc1nnc(N/N=C/c2cc([N+](=O)[O-])c(N3CCC(C)CC3)cc2N2CCC(C)CC2)n1N,2.92 µM (active)

# Target: T3, Polyadenylate-binding protein 1 (Homo sapiens, UniProt P11940)
# Assay: PABP1 MLLE–PAM2 interaction inhibitors, dose response, miRNA deadenylation inhibitor project, biochemical, fluorescence polarization, Cy5-PAM2 peptide, secondary (AID 602260)
# Assay type: functional
# Conditions: read-out: IC50_Mean
# T3 sequence (P11940 whole entry): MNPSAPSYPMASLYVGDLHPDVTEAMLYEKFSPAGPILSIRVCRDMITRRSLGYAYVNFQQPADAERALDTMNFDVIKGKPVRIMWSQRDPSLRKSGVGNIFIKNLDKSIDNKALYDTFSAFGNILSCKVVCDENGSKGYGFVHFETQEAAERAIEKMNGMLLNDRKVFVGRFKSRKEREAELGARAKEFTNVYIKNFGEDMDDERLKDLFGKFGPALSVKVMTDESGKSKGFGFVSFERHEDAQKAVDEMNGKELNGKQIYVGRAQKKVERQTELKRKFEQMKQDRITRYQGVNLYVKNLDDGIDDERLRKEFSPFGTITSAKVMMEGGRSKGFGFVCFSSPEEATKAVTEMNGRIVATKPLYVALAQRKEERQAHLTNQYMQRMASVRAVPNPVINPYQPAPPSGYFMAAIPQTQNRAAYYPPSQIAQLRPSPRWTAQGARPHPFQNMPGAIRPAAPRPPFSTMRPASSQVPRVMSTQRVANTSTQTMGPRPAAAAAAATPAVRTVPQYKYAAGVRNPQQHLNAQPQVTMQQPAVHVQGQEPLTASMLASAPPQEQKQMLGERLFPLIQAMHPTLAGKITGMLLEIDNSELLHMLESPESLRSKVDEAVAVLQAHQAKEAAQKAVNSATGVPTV
row,Structure (SMILES),IC50
1,COc1ccc(CCNC(=O)c2sc(=S)n(C)c2N)cc1,> 66 µM (inactive)
2,COc1ccc2cc(C(c3nnnn3C3CCCC3)N3CCc4ccccc4C3)c(O)nc2c1 (configuration not stated),> 66 µM (inactive)
3,Cc1ccc2cc(C=C(C#N)C#N)c(Cl)nc2c1,44.8 µM (inactive)
4,O=C(CCN1CCC2CCC(C2)C1)c1ccccc1 (configuration not stated),> 66 µM (inactive)
5,Cc1ccc(-c2ccc(/C=N/NC(=S)Nc3ccccc3)o2)cc1[N+](=O)[O-],> 66 µM (inactive)
6,C/C(=N\NC(=S)Nc1cccc(C)c1)c1cc2ccccc2o1,> 66 µM (inactive)

# Target: T3, Polyadenylate-binding protein 1
# Assay: PABP1 MLLE–PAM2 binding inhibitor potency, dose response, biochemical, fluorescence polarization, FITC-PAM2 peptide (AID 602259)
# Assay type: functional
# Conditions: read-out: IC50_Mean
row,Structure (SMILES),IC50
1,COc1ccc(CCNC(=O)c2sc(=S)n(C)c2N)cc1,> 66 µM (inactive)
2,COc1ccc2cc(C(c3nnnn3C3CCCC3)N3CCc4ccccc4C3)c(O)nc2c1 (configuration not stated),> 66 µM (inactive)
3,Cc1ccc2cc(C=C(C#N)C#N)c(Cl)nc2c1,28 µM (inactive)
4,O=C(CCN1CCC2CCC(C2)C1)c1ccccc1 (configuration not stated),> 66 µM (inactive)
5,Cc1ccc(-c2ccc(/C=N/NC(=S)Nc3ccccc3)o2)cc1[N+](=O)[O-],> 66 µM (inactive)
6,C/C(=N\NC(=S)Nc1cccc(C)c1)c1cc2ccccc2o1,> 66 µM (inactive)

# Target: T4, Corticotropin-releasing factor receptor 2/Corticotropin-releasing factor-binding protein (Homo sapiens, UniProt P24387+Q13324)
# T4 sequence (Q13324 whole entry): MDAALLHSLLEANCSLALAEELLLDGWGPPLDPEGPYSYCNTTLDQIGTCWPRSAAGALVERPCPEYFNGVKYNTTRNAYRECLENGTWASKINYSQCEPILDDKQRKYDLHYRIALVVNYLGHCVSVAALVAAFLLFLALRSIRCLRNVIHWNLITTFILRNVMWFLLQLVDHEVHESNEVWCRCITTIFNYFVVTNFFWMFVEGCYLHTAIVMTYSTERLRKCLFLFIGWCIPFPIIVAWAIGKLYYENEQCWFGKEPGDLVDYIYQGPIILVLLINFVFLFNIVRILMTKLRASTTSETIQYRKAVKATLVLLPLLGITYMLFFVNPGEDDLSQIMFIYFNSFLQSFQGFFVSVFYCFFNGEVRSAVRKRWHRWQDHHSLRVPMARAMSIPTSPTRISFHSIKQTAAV
# T4 sequence (P24387 whole entry): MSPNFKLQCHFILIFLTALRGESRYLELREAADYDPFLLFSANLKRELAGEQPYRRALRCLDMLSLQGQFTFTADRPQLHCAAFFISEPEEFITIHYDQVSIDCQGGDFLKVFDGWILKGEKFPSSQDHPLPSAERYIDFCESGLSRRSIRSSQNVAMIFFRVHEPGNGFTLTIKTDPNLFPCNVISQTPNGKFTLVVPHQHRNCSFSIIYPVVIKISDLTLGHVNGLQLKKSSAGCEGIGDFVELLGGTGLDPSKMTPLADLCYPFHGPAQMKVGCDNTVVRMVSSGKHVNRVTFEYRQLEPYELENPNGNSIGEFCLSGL
# Assay: activators of CRF receptor 2 with binding protein – uHTS hits, confirmation (AID 602473)
# Assay type: functional
# Conditions: read-out: EC50_Mean
row,Structure (SMILES),EC50
1,COc1cc2c(cc1OC)C(c1c(Cl)cccc1Cl)NC(=O)C2 (configuration not stated),10.9 µM (active)
2,CCN(C[C@H]1N[C@@](Cc2ccccc2)(C(=O)OC)[C@H]2C(=O)N(Cc3ccccc3)C(=O)[C@@H]12)C(=O)C1CCCCC1,5.33 µM (active)
3,CN(C)/C=N/c1nccc(-c2cccs2)n1,> 53 µM (inactive)

# Target: T5, Rac GTPase-activating protein 1 (Homo sapiens, UniProt Q9H0H5)
# T5 sequence (Q9H0H5 whole entry): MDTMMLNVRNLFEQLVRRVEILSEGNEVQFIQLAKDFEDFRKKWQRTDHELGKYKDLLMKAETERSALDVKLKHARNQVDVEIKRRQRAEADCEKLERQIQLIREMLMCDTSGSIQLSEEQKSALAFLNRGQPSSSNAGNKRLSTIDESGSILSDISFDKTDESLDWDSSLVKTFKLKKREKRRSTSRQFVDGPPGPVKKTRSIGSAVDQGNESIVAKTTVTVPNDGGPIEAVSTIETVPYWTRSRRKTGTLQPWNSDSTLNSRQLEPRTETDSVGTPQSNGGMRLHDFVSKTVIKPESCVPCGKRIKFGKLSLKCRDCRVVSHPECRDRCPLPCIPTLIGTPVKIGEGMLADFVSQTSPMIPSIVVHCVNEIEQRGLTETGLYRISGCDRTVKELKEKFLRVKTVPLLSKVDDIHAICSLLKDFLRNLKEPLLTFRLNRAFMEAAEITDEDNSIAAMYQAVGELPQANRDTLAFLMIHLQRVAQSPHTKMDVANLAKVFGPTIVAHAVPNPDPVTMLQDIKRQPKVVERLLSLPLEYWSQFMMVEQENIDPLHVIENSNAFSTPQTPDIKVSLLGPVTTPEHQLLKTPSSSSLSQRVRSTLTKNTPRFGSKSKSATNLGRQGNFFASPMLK
# Assay: MgcRacGAP GTPase-activating activity inhibitors, confirmation, biochemical, ADP Hunter fluorescence, primary and confirmatory (AID 624330)
# Assay type: functional
# Conditions: not given
row,Structure (SMILES),IC50
1,CC(C)[C@H](N[C@@H](C)c1ccccc1)c1c(O)ccc2ccccc12,16.8 µM (active)
2,CCOCCCN=C(S)N1CCN(Cc2ccc3c(c2)OCO3)CC1,152 µM (active)
3,Nc1cc(Br)c(N)c(Br)c1,13.5 µM (active)
4,Cn1c(=O)[nH]c(=O)c2c1nc(S)n2Cc1ccccc1,26.9 µM (active)
5,COc1cc(CN2CCC(C(=O)N3CCCC(C)C3)CC2)cc(Br)c1O (configuration not stated),191 µM (active)
6,CN(C)c1ccc(NC(=O)COC(=O)c2ccc3c(c2)OCO3)cc1,63.3 µM (active)
7,Cc1nc(N)sc1-c1ccccc1,71.9 µM (active)

# Target: T6, Cytochrome P450 1A2 (Homo sapiens, UniProt P05177);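 also: PubChem cytochrome P450 panel assay, CYP1A2 panel member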
# T6 sequence (P05177 whole entry): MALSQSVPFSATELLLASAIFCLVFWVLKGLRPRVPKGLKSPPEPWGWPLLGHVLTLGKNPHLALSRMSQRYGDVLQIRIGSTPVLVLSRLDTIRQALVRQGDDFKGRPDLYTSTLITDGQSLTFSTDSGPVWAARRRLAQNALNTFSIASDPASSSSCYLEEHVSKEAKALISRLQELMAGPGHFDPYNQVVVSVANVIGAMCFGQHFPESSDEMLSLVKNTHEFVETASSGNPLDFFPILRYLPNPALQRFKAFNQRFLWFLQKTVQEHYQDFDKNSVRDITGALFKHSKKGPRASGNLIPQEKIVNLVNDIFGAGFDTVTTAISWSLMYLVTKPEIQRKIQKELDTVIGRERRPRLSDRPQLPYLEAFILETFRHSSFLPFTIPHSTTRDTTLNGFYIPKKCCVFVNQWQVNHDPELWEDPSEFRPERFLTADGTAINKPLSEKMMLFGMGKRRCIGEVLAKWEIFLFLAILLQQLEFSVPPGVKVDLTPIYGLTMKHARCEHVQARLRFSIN
# Conditions: not given
row,Structure (SMILES),AC50
1,Cc1ccc(-c2ccc(/C=N/NC(=S)Nc3ccccc3)o2)cc1[N+](=O)[O-],3.55 µM (inconclusive)
